Test results published in US7208485B2, “Crystalline forms of halobetasol propionate” (Chemagis Ltd., priority 2003, dated 2007).

Assay: Thermal solid-state stability / phase transition on heating (hot-stage microscopy, DSC)
Type: physicochemical
Conditions: for temperature of solid-solid phase transition upon heating: heating at ambient pressure, observed by hot-stage microscopy and as DSC peak
Experimental: Differential scanning calorimetry experiments were run on DuPont instruments model DSC 910, with software version 4.1C. Samples were analyzed inside 40 μl crimped Aluminum pan. Heating rate for all samples was 5° C./min. Since the melting of halobetasol propionate is accompanied by decomposition, the heating process was stopped slightly after the beginning of melting, in order to avoid damage to the measuring apparatus caused by decomposition products.

SMILES | temperature of solid-solid phase transition upon heating | other results
CCC(=O)O[C@]1(C(=O)CCl)[C@@H](C)CC2[C@@H]3C[C@H](F)C4=CC(=O)C=C[C@]4(C)[C@@]3(F)[C@@H](O)C[C@@]21C (some centres unmarked) [Form I, halobetasol propionate Form I] | 90 °C | –
CCC(=O)O[C@]1(C(=O)CCl)[C@@H](C)CC2[C@@H]3C[C@H](F)C4=CC(=O)C=C[C@]4(C)[C@@]3(F)[C@@H](O)C[C@@]21C (some centres unmarked) [Form II, halobetasol propionate Form II] | – | temperature to which heated without converting to another crystalline or amorphous form and without significant decomposition (heating): ≤ 200 °C; transitions upon heating to melting temperature (hot stage microscopy): no detectable transitions
CCC(=O)O[C@]1(C(=O)CCl)[C@@H](C)CC2[C@@H]3C[C@H](F)C4=CC(=O)C=C[C@]4(C)[C@@]3(F)[C@@H](O)C[C@@]21C (some centres unmarked) [Form III, halobetasol propionate Form III] | 160 °C | –

The next lines start with results.

temperature of solid-solid phase transition upon heating | SMILES | other results
120–130 °C | CCC(=O)O[C@]1(C(=O)CCl)[C@@H](C)CC2[C@@H]3C[C@H](F)C4=CC(=O)C=C[C@]4(C)[C@@]3(F)[C@@H](O)C[C@@]21C (some centres unmarked) [Form IV, halobetasol propionate Form IV] | temperature of solid-solid phase transition under vacuum (heating under vacuum for about an hour or two): about 60 °C
about 90 °C | CCC(=O)O[C@]1(C(=O)CCl)[C@@H](C)CC2[C@@H]3C[C@H](F)C4=CC(=O)C=C[C@]4(C)[C@@]3(F)[C@@H](O)C[C@@]21C (some centres unmarked) [Form V, halobetasol propionate Form V] | –
150–170 °C | CCC(=O)O[C@]1(C(=O)CCl)[C@@H](C)CC2[C@@H]3C[C@H](F)C4=CC(=O)C=C[C@]4(C)[C@@]3(F)[C@@H](O)C[C@@]21C (some centres unmarked) [Form VI, halobetasol propionate Form VI] | –
